Test results from patent publication US8541628B2, “Complex cationic lipids having quaternary nitrogens therein” (Vical Incorporated, priority 1995, dated 2013).
Entries after “also recorded” stand apart in the source; their conditions may differ.

Tests used:
murine B16 tumor cells = assay: Intraperitoneal tumor assay (CAT DNA, CAT activity in tumors); type: in vivo, C57/B16 mice; details: 0.5 mg CAT DNA i.p., 10:1 molar ratio of cytofectin:DNA, tumors two days later, FIG. 5; for CAT expression in tumor cells: control DNA alone
Description: Two hundred thousand murine B16 tumor cells in 500 μl RPMI were injected intraperitoneally into C57/B16 mice at day 0. At day 7-14, mice received intraperitoneal injections of 0.5 mg CAT DNA in 1.5 ml saline containing cytofectin at a 10:1 molar ratio of cytofectin:DNA. The cationic lipids used were DMRIE, GAP-DMRIE, GAP-DLRIE, and GMU-DLRIE. Two days later, tumors were collected, extracted and assayed for CAT activity as described in Example 7. The CAT activities observed with the cytofectin formulations is compared to a control receiving DNA alone in FIG. 5. […] CAT activity was greatest in cells transfected with DMRIE.

COS7 monkey kidney cells = assay: In vitro transfection of COS7 cells (pRSV lacZ, β-galactosidase expression; DMRIE as reference standard); type: cell-based; details: for Activity Cos7: cytofectin activity relative to DMRIE, comparison symbols, key not given
Description: (§1) Solutions of a DMRIE or GMU-DMRIE in chloroform were prepared on a weight to volume (w/v) basis. Aliquots of cationic lipid and neutral lipid (when used) were transferred aseptically to sterile vials in amounts calculated to provide the relative and absolute lipid concentrations desired upon reconstitution with 1 ml of aqueous vehicle. Bulk chloroform was removed with a stream of dry nitrogen, and the vials were treated with high vacuum overnight to remove any residual solvent.
(§2) Plasmid DNA at 5 mg/ml of phosphate buffered saline (PBS) as well as the dried, formulated cytofectin-neutral lipid mixture were suspended in OPTIMEM™ (Gibco BRL) and mixed together in 96 well plates at the desired mass/molar ratio as indicated in the Tables. The DNA-lipid complexes were added to the cells within 2 hours after mixing.
(§3) All cells were passaged 1:5 to 1:10 in 10% fetal bovine serum (FBS) and Dulbecco's Modified Eagles medium (DMEM). All cells were expanded through 10 doubling passages upon receipt and aliquots were stored frozen. Upon re-expansion, all cells were used for transfection studies before another 10 passages.
(§4) On day 0, 20,000 cells in 100 microliters 10% FEBS/90% DMEM were seeded into each well of 96-well culture plates (Nunc) and cultured overnight in a 5% CO2 incubator at 37° C. On Day 1, the medium was aspirated carefully without dislodging cells, and 100 microliters of GMU-DMRIE/pRSV lacZ/DOPE in serum-free OPTIMEM™ (Gibco BRL) was added. DMRIE was used as a reference standard. The lacZ gene encodes the enzyme β-galactosidase which can be assayed colorimetricaly. The cationic lipid:DOPE ratios varied for each well. After 4 hours of culture, 50 microliters 30% FBS/70% OPTIMEM™ was added to each well. On Day 2, each well received 100 microliters 10% FEBS/90% OPTIMEM™. On Day 3, the medium was removed and 50 microliters lysis buffer (0.1% Triton-X100 in 250 mM Tris, pH 8.0) was added and the plates were stored at […] for at least 20 hours.

[1] = system: C2C12 mouse myoblast muscle cells; assay: In vitro transfection of C2C12 cells (pRSV lacZ, β-galactosidase expression; DMRIE as reference standard); type: cell-based; details: for Activity C2C12: cytofectin activity relative to DMRIE, comparison symbols, key not given
Description: as §1, §2, §3, §4

[2] = system: influenza nuclear protein (NP) antibody titers; type: in vivo, Balb/c mice; details: cytofectin:DOPE 1:1, pDNA-phosphate/cytofectin 4:1, serum at 6 weeks, FIG. 6; for activity in NP antibody assay compared with naked DNA alone: 10 μgr pDNA per animal, day 0 and 3 weeks
BF16F10 melanoma tumors = assay: Subcutaneous melanoma tumor model (intratumoral cytofectin/CAT plasmid complex, CAT activity); type: in vivo, BALB/C mice; details: intratumoral injection; tumors collected after 48 hours; FIG. 7
Description: Tumors are prepared by injecting a suspension of tumor cells subcutaneously on the side of a mouse strain which is compatible with the specific tumor type. The tumors are periodically measured. Once they have reached a size suitable for injection, the tumor volume is approximated based on the measured diameter assuming a spherical tumor. A complex of the cytofectin to be evaluated with a plasmid encoding a reporter gene in a volume of saline equal to the volume of the tumor to be treated is then injected at a flow rate optimized for the particular tumor type. After an appropriate time, the tumors are collected, frozen, then ground up. The reporter gene product is subsequently extracted and the quantity which was expressed is determined using extraction and assay conditions appropriate for the particular gene product being used. A variety of tumor types may be evaluated using this general technique, and different reporter genes are more or less appropriate depending on the tumor type. A specific example of this assay involving melanoma tumors is provided in Example 14 below.
BF16F10 melanoma tumors are propagated in 90% RPMI 1640/10% Fetal Bovine Serum. The tumors are injected subcutaneously into the side of BALB/C mice in 75 μL of a suspension containing approximately 10^6 cells/mL tissue culture medium. When the tumors have reached 4.5 to 7 mm in diameter the volume of each individual tumor is calculated by measuring the diameter of the tumor and assuming a spherical tumor. For each individual tumor, a volume of the cytofectin/CAT plasmid complex in saline equivalent to the calculated volume of the tumor is injected into the tumor at a rate of 2 mL/min. After 48 hours, the tumors are collected, frozen, ground up, and extracted with 1.5 mL of extraction buffer as described in Example 3. CAT activity is quantitated as described below. […]

CCCCCCCCCCCCCCOCC(C[N+](C)(C)CCO)OCCCCCCCCCCCCCC.[Br-] (racemic) [DMRIE, 1-propanaminium, N-(2-hydroxyethyl)-N,N-dimethyl-2,3-bis(tetradecyloxy)-bromide, (±)-, reference compound]
CAT activity, cytofectins compared with one another (murine B16 tumor cells): greatest | CAT expression in tumor cells (murine B16 tumor cells): significant CAT expression

CCCCCCCCCCCCCCOCC(C[N+](C)(C)CCNC(=O)NC)OCCCCCCCCCCCCCC.[Br-] (stereo not drawn) [BMU, β-aminoethyl-DMRIE,Methyl Urea]
Activity Cos7 (COS7 monkey kidney cells): ≧ | Activity C2C12 [1]: ≦ | activity in NP antibody assay compared with naked DNA alone [2]: greater activity than naked DNA alone | activity in NP antibody assay, among the compounds tested [2]: particularly high activity

CCCCCCCCCCCCOCC(C[N+](C)(CCCN)CCCN)OCCCCCCCCCCCC (centres unmarked) [BPA-DLRIE]
activity in NP antibody assay compared with naked DNA alone [2]: greater activity than naked DNA alone | activity in NP antibody assay, among the compounds tested [2]: particularly high activity

CCCCCCCCCCCCCCOCC(C[N+](C)(CCCN)CCCN)OCCCCCCCCCCCCCC (centres unmarked) [BPA-DMRIE]
activity in NP antibody assay compared with naked DNA alone [2]: greater activity than naked DNA alone | activity in NP antibody assay, among the compounds tested [2]: particularly high activity | CAT activity in subcutaneous melanoma, among the compounds tested (BF16F10 melanoma tumors): particularly high activity

CCCCCCCCCCCCCCOCC(C[N+](C)(C)CCCCNC(=O)NC)OCCCCCCCCCCCCCC.[Br-] (centres unmarked) [DMU, δ-aminobutyl DMRIE, Methyl Urea]
Activity C2C12 [1]: ≧

CCCCCCCCCCCCOCC(C[N+](C)(C)CCCN)OCCCCCCCCCCCC (centres unmarked) [GAP-DLRIE]
CAT activity, cytofectins compared with one another (murine B16 tumor cells): nearly as effective as DMRIE; also recorded: significant activity | CAT expression in tumor cells (murine B16 tumor cells): significant CAT expression

CCCCCCCCCCCCCCOCC(C[N+](C)(C)CCCN)OCCCCCCCCCCCCCC (centres unmarked) [GAP-DMRIE]
CAT activity, cytofectins compared with one another (murine B16 tumor cells): significant activity | CAT expression in tumor cells (murine B16 tumor cells): significant CAT expression

CCCCCCCCCCCCCCOCC(C[N+](C)(C)CCCNC(=O)NC)OCCCCCCCCCCCCCC (centres unmarked) [GMU, γ-aminopropyl-DMRIE,Methyl Urea]
levels of β-gal activity compared with DMRIE (COS7 monkey kidney cells; COS7 cells): higher levels of activity than those achieved by DMRIE | Total β-gal expression (COS7 monkey kidney cells; COS7 cells, GMU-DMRIE alone (no DOPE)): significantly decreased | total expression of β-gal (COS7 monkey kidney cells; COS7 cells, GMU-DMRIE/DOPE ratio of 75:25): highly effective | Activity Cos7 (COS7 monkey kidney cells): ≧ | levels of total β-gal activity compared with DMRIE ([1]; C2C12 cells): significantly higher levels of total activity than DMRIE | Total β-gal expression ([1]; C2C12 cells, GMU-DMRIE alone (no DOPE)): significantly decreased | Activity C2C12 [1]: ≈

CCCCCCCCCCCCOCC(C[N+](C)(C)CCCNC(=O)NC)OCCCCCCCCCCCC (centres unmarked) [GMU-DLRIE]
CAT expression in tumor cells (murine B16 tumor cells): significant CAT expression

CCCCCCCCCCCCCCOCC(C[N+](C)(C)CCCNC(N)=S)OCCCCCCCCCCCCCC (centres unmarked) [GTU-DMRIE, DMRIE-γ-thiourea]
CAT activity in subcutaneous melanoma, among the compounds tested (BF16F10 melanoma tumors): particularly high activity

CCCCCCCCCCCCCCOCC(C[N+](C)(CCCN)CCCCN)OCCCCCCCCCCCCCC (centres unmarked) [PABA-DMRIE]
activity in NP antibody assay compared with naked DNA alone [2]: greater activity than naked DNA alone | activity in NP antibody assay, among the compounds tested [2]: particularly high activity

DMRIE Methyl carbamate [βMC]
Activity Cos7 (COS7 monkey kidney cells): ≈ | Activity C2C12 [1]: ≈

DMRIE carboxylate (methionine-methyl ester) amide [DOx-Met-OMe]
Activity C2C12 [1]: <

Hydroxybutyl DMRIE Methyl Carbamate [δMC]
Activity Cos7 (COS7 monkey kidney cells): ≈ | Activity C2C12 [1]: ≈

Hydroxypropyl DMRIE Methyl Carbamate [ΥMC]
Activity Cos7 (COS7 monkey kidney cells): ≈ | Activity C2C12 [1]: ≈

Serine-δ-DMRIE amide [δ-ser-DMRIE]
Activity Cos7 (COS7 monkey kidney cells): ≈ | Activity C2C12 [1]: ≦

pGlutamate-histidine-proline-γ-DMRIE amide [TRH-γ-DMRIE]
Activity Cos7 (COS7 monkey kidney cells): ≈

γ-aminopropyl-DMRIE, Arginine Methyl Ester Urea [Arg(OMe)-GU-DMRIE]
CAT activity in subcutaneous melanoma, among the compounds tested (BF16F10 melanoma tumors): particularly high activity

γ-aminopropyl-DMRIE, α-arabonosyl thiourea [Ara-TU-DMRIE]
Activity Cos7 (COS7 monkey kidney cells): ≈ | Activity C2C12 [1]: < | activity in NP antibody assay compared with naked DNA alone [2]: greater activity than naked DNA alone

γ-aminopropyl-DMRIE,α-galactosyl thiourea [Gal-TU-DMRIE]
Activity Cos7 (COS7 monkey kidney cells): ≧ | Activity C2C12 [1]: ≈ | activity in NP antibody assay compared with naked DNA alone [2]: greater activity than naked DNA alone

γ-aminopropyl-DMRIE,α-glucosyl thiourea [Glc-TU-DMRIE]
Activity Cos7 (COS7 monkey kidney cells): ≧ | Activity C2C12 [1]: ≦ | activity in NP antibody assay compared with naked DNA alone [2]: greater activity than naked DNA alone
